What is called IC50 is the concentration that inhibits the measured activity by half.

SMILES strings stand for the structures. Where two headings read alike, the source gives them in different places.

One test concerns the target T1, TBK1 (Homo sapiens, UniProt Q9UHD2).
T1 construct: His-tag; made in house; host or cells: Sf9 insect cells
T1 sequence (Q9UHD2 1-729): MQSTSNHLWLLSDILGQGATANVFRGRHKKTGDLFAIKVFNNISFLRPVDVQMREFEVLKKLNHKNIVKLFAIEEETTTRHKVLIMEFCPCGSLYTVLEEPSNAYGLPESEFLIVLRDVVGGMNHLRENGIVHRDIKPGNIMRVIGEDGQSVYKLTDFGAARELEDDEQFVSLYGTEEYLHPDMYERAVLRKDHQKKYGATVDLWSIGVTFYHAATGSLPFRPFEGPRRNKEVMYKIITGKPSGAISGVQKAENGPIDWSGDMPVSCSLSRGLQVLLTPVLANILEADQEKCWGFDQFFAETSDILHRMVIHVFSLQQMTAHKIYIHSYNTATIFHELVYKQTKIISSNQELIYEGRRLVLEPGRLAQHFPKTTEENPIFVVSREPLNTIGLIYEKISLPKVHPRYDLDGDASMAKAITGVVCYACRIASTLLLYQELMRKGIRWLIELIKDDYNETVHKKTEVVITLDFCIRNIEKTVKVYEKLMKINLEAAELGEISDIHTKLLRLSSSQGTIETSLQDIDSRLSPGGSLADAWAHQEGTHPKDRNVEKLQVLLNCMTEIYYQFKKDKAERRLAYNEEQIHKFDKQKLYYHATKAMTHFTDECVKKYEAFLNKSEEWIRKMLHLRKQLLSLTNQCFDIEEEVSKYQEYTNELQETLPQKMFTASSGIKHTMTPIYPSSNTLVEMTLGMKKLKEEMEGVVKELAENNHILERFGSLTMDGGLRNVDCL
Kind of test: In-vitro TBK1 kinase assay ([γ33]ATP filter-plate). Format: biochemical. The essentials: (§1)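 Phosphorylation of casein or myelin basic protein was counted by P-81 filter capture after 30-45 min reactions stopped with phosphoric acid, with counts normalized to DMSO after background subtraction. ATP was twice Km: 60 μM for TBK1 and 32 μM for IKKε, plus [γ33]ATP. Sf9-expressed His-tag enzymes were used at normal/sensitized levels of 0.1/0.02 μg/ml (TBK1) and 0.1/0.015 μg/ml (IKKε).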

The target of a further test is T2, IKKε (Homo sapiens, UniProt Q14164).
T2 construct: His-tag; made in house; host or cells: Sf9 insect cells
T2 sequence (Q14164 1-716): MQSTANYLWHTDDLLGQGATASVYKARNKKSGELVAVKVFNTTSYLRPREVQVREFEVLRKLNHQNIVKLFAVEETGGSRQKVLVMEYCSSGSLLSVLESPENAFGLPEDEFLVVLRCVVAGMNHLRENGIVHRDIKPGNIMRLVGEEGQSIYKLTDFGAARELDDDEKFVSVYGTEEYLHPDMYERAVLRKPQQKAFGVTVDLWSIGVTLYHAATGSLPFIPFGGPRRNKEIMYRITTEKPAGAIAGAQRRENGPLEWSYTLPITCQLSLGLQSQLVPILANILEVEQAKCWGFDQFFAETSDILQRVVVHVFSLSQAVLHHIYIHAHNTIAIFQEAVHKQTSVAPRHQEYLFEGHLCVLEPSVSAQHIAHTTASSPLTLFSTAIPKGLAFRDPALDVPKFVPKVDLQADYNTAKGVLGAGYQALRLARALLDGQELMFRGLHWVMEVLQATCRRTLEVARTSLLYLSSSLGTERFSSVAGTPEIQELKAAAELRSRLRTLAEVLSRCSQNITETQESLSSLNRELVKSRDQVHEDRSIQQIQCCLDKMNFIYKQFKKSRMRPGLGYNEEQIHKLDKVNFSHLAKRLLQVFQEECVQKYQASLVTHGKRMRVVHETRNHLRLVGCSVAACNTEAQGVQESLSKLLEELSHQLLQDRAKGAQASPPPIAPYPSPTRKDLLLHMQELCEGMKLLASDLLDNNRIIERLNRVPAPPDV
Kind of test: In-vitro IKKε kinase assay ([γ33]ATP filter-plate). It is filed as biochemical. In outline:
as §1

Where [1] appears, read: text bins, read-out: IC50 for inhibition of the kinase activity of TBK1.
The mark [2] stands for this setting: text bins, read-out: IC50 for inhibition of the kinase activity of IKKε.

As to `COC(=O)c1ccc(Nc2nccc(-c3ccc(OC4CCN(C(=O)[C@H](C)O)CC4)c(C#N)c3)n2)cc1` [compound 342, methyl 4-({4-[3-cyano-4-({1-[(2S)-2-hydroxypropanoyl]piperidin-4-yl}oxy)phenyl]pyrimidin-2-yl}amino)benzoate], the 50% inhibitory concentration (IC50) was below 0.01 µM on TBK1 (setting [1]) and 0.005 to 0.05 µM at IKKε (setting [2]).
The corresponding values for `CC(C)C(=O)Nc1ccc(-c2ccnc(Nc3cccc(CC(=O)NCCCN4CCOCC4)c3)n2)cc1C#N` [compound 422, N-[2-cyano-4-(2-{[3-(2-{[3-(morpholin-4-yl)propyl]amino}-2-oxoethyl)phenyl]amino}pyrimidin-4-yl)phenyl]-2-methylpropanamide] are 0.01 to 0.1 µM and 0.005 to 0.05 µM.
As for `N#Cc1cc(-c2ccnc(Nc3ccc(N4CCOCC4)cc3)n2)ccc1OCCN` [Example 220, 2-(2-aminoethoxy)-5-(2-{[4-(morpholin-4-yl)phenyl]amino}pyrimidin-4-yl)benzonitrile], the 50% inhibitory concentration (IC50) at TBK1 (setting [1]) was below 0.01 µM; at IKKε (setting [2]) it was 0.005 to 0.05 µM.
On to `CNS(=O)(=O)Cc1ccc(Nc2nccc(-c3ccc(OCC(C)C)c(C#N)c3)n2)cc1` [compound 606, 1-[4-({4-[3-Cyano-4-(2-methylpropoxy)phenyl]pyrimidin-2-yl}amino)phenyl]-N-methylmethane-sulfonamide], for which the results for the half-maximal inhibitory concentration (IC50) on TBK1 (setting [1]) and at IKKε (setting [2]) were below 0.01 µM and below 0.005 µM, respectively.
As for `COc1ccc(Nc2nccc(-c3ccc(OC(C)(C)C)c(C#N)c3)n2)cc1OC` [Example 169, 2-tert-Butoxy-5-{2-[(3,4-dimethoxyphenyl)amino]pyrimidin-4-yl}benzonitrile], the IC50 is 0.01 to 0.1 µM on TBK1 (setting [1]) and 0.005 to 0.05 µM at IKKε (setting [2]).
Regarding `N#Cc1cc(-c2ccnc(Nc3cccc(N4CCOCC4)c3)n2)ccc1OC1CCOCC1` [compound 585, 5-(2-{[3-(Morpholin-4-yl)phenyl]amino}pyrimidin-4-yl)-2-(tetrahydro-2H-pyran-4-yloxy)benzonitrile], the concentration for half-maximal inhibition (IC50) is 0.0019 µM on TBK1 (Table 3, read-out: TBK1 IC50); below 0.01 µM at TBK1 (setting [1]); 0.0004 µM on IKKε (Table 3, read-out: IKKε IC50); below 0.005 µM on IKKε (setting [2]).
In the case of `COc1cc(Nc2nccc(-c3ccc(OC)c(C#N)c3)n2)cc(C(=O)O)c1` [compound 305], the values for the IC50 at TBK1 (setting [1]) and at IKKε (setting [2]) were 0.01 to 0.1 µM and 0.005 to 0.05 µM, respectively.
The corresponding values for `COc1ccc(-c2ccnc(Nc3ccc(N4CCN(C)C(=O)C4)c(OC)c3)n2)cc1C#N` [Example 124] are below 0.01 µM and below 0.005 µM.
Consider `N#Cc1cc(-c2ccnc(Nc3ccc(NC(=O)NCCO)cc3)n2)ccc1OC1CCOCC1` [Example 11, 1-[4-({4-[3-cyano-4-(tetrahydro-2H-pyran-4-yloxy)phenyl]pyrimidin-2-yl}amino)phenyl]-3-(2-hydroxyethyl)urea], for which the IC50 on TBK1 (setting [1]) is below 0.01 µM; on IKKε (setting [2]), below 0.005 µM.
On to `CNc1ccc(-c2ccnc(Nc3ccc(OC)c(OC)c3)n2)cc1C#N` [Example 107, 5-{2-[(3,4-Dimethoxyphenyl)amino]pyrimidin-4-yl}-2-(methylamino) benzonitrile], for which the figures for the IC50 on TBK1 (setting [1]) and on IKKε (setting [2]) were below 0.01 µM and below 0.005 µM, respectively.
Take `COc1cc(NC(=O)NCCO)cc(Nc2nccc(-c3ccc(OC4CCN(C(C)=O)CC4)c(C#N)c3)n2)c1` [compound 380]: the values for the IC50 on TBK1 (setting [1]) and at IKKε (setting [2]) were 0.01 to 0.1 µM and 0.005 to 0.05 µM, respectively.
For the compound `COc1ccc(Nc2nccc(-c3cc(Cl)cc(C#N)c3)n2)cc1OC` [Example 248, 3-Chloro-5-{2-[(3,4-dimethoxyphenyl)amino]pyrimidin-4-yl}benzonitrile], the half-maximal inhibitory concentration (IC50) was 0.01 to 0.1 µM on TBK1 (setting [1]) and 0.005 to 0.05 µM on IKKε (setting [2]).
As to `N#Cc1cc(-c2ccnc(Nc3ccc(N4CCOCC4)cc3)n2)ccc1NC(=O)C1CCCCC1` [Example 54, N-[2-cyano-4-(2-{[4-(morpholin-4-yl)phenyl]amino}pyrimidin-4-yl)phenyl] cyclohexane-carboxamide], the values for the IC50 at TBK1 (setting [1]) and at IKKε (setting [2]) were 0.01 to 0.1 µM and 0.005 to 0.05 µM, respectively.
The corresponding values for `COC(=O)c1ccc(Nc2nccc(-c3ccc(OC4CCN(C(=O)[C@H](C)O)CC4)c(C#N)c3)n2)cc1OC` [compound 324, methyl 4-({4-[3-cyano-4-({1-[(2S)-2-hydroxypropanoyl]piperidin-4-yl}oxy)phenyl]pyrimidin-2-yl}amino)-2-methoxybenzoate] are 0.01 to 0.1 µM and 0.005 to 0.05 µM.
As for `COc1cc(NC(=O)NCCO)cc(Nc2nccc(-c3ccc(OC)c(C#N)c3)n2)c1` [compound 295, 1-(3-{[4-(3-Cyano-4-methoxyphenyl)pyrimidin-2-yl]amino}-5-methoxyphenyl)-3-(2-hydroxyethyl)urea], the half-maximal inhibitory concentration (IC50) at TBK1 (setting [1]) was 0.01 to 0.1 µM; on IKKε (setting [2]), 0.005 to 0.05 µM.
Take `COc1cc(Nc2nccc(-c3ccc(OC4CCN(C(=O)[C@H](C)O)CC4)c(C#N)c3)n2)ccc1C(=O)NCCN(C)C` [Example 287, 4-({4-[3-cyano-4-({1-[(2S)-2-hydroxypropanoyl]piperidin-4-yl}oxy)phenyl]pyrimidin-2-yl}amino)-N-[2-(dimethylamino)ethyl]-2-methoxybenzamide]: the IC50 on TBK1 (setting [1]) was below 0.01 µM; on IKKε (setting [2]), below 0.005 µM.
As to `COc1cc(NC(=O)NC2CCCC2)cc(Nc2nccc(-c3ccc(OC)c(C#N)c3)n2)c1` [compound 332, 1-(3-{[4-(3-Cyano-4-methoxyphenyl)pyrimidin-2-yl]amino}-5-methoxyphenyl)-3-cyclopentylurea], the IC50 lay in the range of 0.01 to 0.1 µM at TBK1 (setting [1]) and 0.005 to 0.05 µM on IKKε (setting [2]).
Take `N#Cc1cc(-c2ccnc(Nc3ccc(N4CCOCC4)cc3)n2)ccc1O` [Example 130, 2-Hydroxy-5-(2-{[4-(morpholin-4-yl)phenyl]amino}pyrimidin-4-yl)benzonitrile]: the values for the 50% inhibitory concentration (IC50) on TBK1 (setting [1]) and at IKKε (setting [2]) were below 0.01 µM and below 0.005 µM, respectively.
Consider `COc1cc(Nc2nccc(-c3ccc(OC4CCN(C(C)=O)CC4)c(C#N)c3)n2)ccc1N1CCNC(=O)C1` [Example 134, 2-[(1-Acetylpiperidin-4-yl)oxy]-5-(2-{[3-methoxy-4-(3-oxopiperazin-1-yl)phenyl]amino}pyrimidin-4-yl)benzonitrile], for which the concentration for half-maximal inhibition (IC50) was below 0.01 µM at TBK1 (setting [1]) and below 0.005 µM at IKKε (setting [2]).
Regarding `N#Cc1cc(-c2ccnc(Nc3ccc(N4CCOCC4)cc3)n2)ccc1OC1CCN(C(=O)CN)CC1` [Example 268, 2-[(1-Glycylpiperidin-4-yl)oxy]-5-(2-{[4-(morpholin-4-yl)phenyl]amino}pyrimidin-4-yl)benzonitrile], the IC50 was below 0.01 µM on TBK1 (setting [1]) and 0.005 to 0.05 µM at IKKε (setting [2]).
For the compound `CC(=O)N1CCC(Oc2ccc(-c3ccnc(Nc4ccc(N5CCOCC5)cc4)n3)cc2C#N)CC1` [Example 86, 2-[(1-Acetylpiperidin-4-yl)oxy]-5-(2-{[4-(morpholin-4-yl)phenyl]amino}pyrimidin-4-yl)benzonitrile], the concentration for half-maximal inhibition (IC50) on TBK1 (setting [1]) lay within 0.01 to 0.1 µM; on IKKε (setting [2]), 0.005 to 0.05 µM.
For `N#Cc1cccc(-c2ccnc(Nc3cccc(S(N)(=O)=O)c3)n2)c1` [compound 373], the half-inhibitory concentration (IC50) on TBK1 (setting [1]) was 0.01 to 0.1 µM; at IKKε (setting [2]), below 0.005 µM.
On to `COc1ccc(-c2ccnc(Nc3cccc(NC(C)=O)c3)n2)cc1C#N` [Example 70, N-(3-{[4-(3-Cyano-4-methoxyphenyl)pyrimidin-2-yl]amino}phenyl) acetamide], for which the results for the concentration for half-maximal inhibition (IC50) at TBK1 (setting [1]) and on IKKε (setting [2]) were 0.01 to 0.1 µM and 0.005 to 0.05 µM, respectively.
For `N#Cc1cc(-c2ccnc(Nc3ccc(N4CCOCC4)cc3)n2)ccc1OCCCN` [compound 447, 2-(3-Aminopropoxy)-5-(2-{[4-(morpholin-4-yl)phenyl]amino}pyrimidin-4-yl)benzonitrile], in that order: 0.01 to 0.1 µM and 0.005 to 0.05 µM.

The values above are taken from patent US20150352108A1, “AMINO-PYRIMIDINE COMPOUNDS AS INHIBITORS OF TBK1 AND/OR IKK EPSILON” (Alzheimer's Institute of America, priority 2009, published 2015).
